According to PubChem BioAssay (NCI):
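Exposure lasted 48 hours, with cells grown in 96-well plates and compounds tested at five concentrations. Here, GI50 denotes the concentration required for 50% inhibition of growth. TGI marks complete inhibition of growth.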

Experiments:
Assay in all cases: DTP human tumour cell line panel, 48 h
[1] = system: 786-0 renal
[2] = system: A498 renal
[3] = system: A549 NSCLC
[4] = system: ACHN renal
[5] = system: BT-549 breast
[6] = system: CAKI-1 renal
[7] = system: CCRF-CEM leukemia
[8] = system: COLO 205 colon
[9] = system: DU-145 prostate
[10] = system: EKVX NSCLC
[11] = system: HCC-2998 colon
[12] = system: HCT-116 colon
[13] = system: HCT-15 colon
[14] = system: HL-60(TB) leukemia
[15] = system: HOP-62 NSCLC
[16] = system: HOP-92 NSCLC
[17] = system: HS 578T breast
[18] = system: HT29 colon
[19] = system: IGROV1 ovarian
[20] = system: K-562 leukemia
[21] = system: KM12 colon
[22] = system: LOX IMVI melanoma
[23] = system: M14 melanoma
[24] = system: MALME-3M melanoma
[25] = system: MCF7 breast
[26] = system: MDA-MB-231 breast
[27] = system: MDA-MB-435
[28] = system: MOLT-4 leukemia
[29] = system: NCI-H226 lung
[30] = system: NCI-H23 lung
[31] = system: NCI-H460 lung
[32] = system: NCI-H522 lung
[33] = system: NCI/ADR-RES ovarian
[34] = system: OVCAR-3 ovarian
[35] = system: OVCAR-4 ovarian
[36] = system: OVCAR-5 ovarian
[37] = system: OVCAR-8 ovarian
[38] = system: PC-3 prostate
[39] = system: RPMI-8226 leukemia
[40] = system: RXF 393 renal
[41] = system: SF-268 CNS
[42] = system: SF-295 CNS
[43] = system: SF-539 CNS
[44] = system: SK-MEL-2 melanoma
[45] = system: SK-MEL-28 melanoma
[46] = system: SK-MEL-5 melanoma
[47] = system: SK-OV-3 ovarian
[48] = system: SN12C renal
[49] = system: SNB-19 CNS
[50] = system: SNB-75 CNS
[51] = system: SR leukemia
[52] = system: SW-620 colon
[53] = system: T-47D breast
[54] = system: TK-10 renal
[55] = system: U251 CNS
[56] = system: UACC-257 melanoma
[57] = system: UACC-62 melanoma
[58] = system: UO-31 renal

For `O=C(Nc1cccc(Cl)c1)Nc1nccs1`, the GI50 [1] was 26.6 µM, the TGI [1] was 63 µM and the GI50 [2] was 12.8 µM. For the same compound, the TGI [2] was 47.7 µM, the GI50 [3] was 26.5 µM and the TGI [3] was > 100 µM. For the same compound, the GI50 [4] was 30.5 µM, the TGI [4] was > 100 µM and the GI50 [5] was 31.6 µM. The TGI [5] was > 100 µM, the GI50 [6] was 15.6 µM and the TGI [6] was 43.5 µM. For the same compound, the GI50 [7] was 27 µM, the TGI [7] was > 100 µM and the GI50 [8] was 16 µM. It also gave a TGI [8] of 32.1 µM, a GI50 [9] of 24.1 µM and a TGI [9] of 65.2 µM. It also gave a GI50 [10] of 19.8 µM, a TGI [10] of 69.2 µM and a GI50 [11] of 21.3 µM. The TGI [11] was 51.2 µM, the GI50 [12] was 26.8 µM and the TGI [12] was > 100 µM. The GI50 [13] was 20.5 µM, the TGI [13] was > 100 µM and the GI50 [14] was 28.1 µM. For the same compound, the TGI [14] was 89.2 µM, the GI50 [15] was 25.3 µM and the TGI [15] was > 100 µM. For the same compound, the GI50 [16] was 23.2 µM, the TGI [16] was 65 µM and the GI50 [17] was 15.3 µM. It also gave a TGI [17] of 43.6 µM, a GI50 [18] of 19.7 µM and a TGI [18] of 46.6 µM. It also gave a GI50 [19] of 16.4 µM, a TGI [19] of 70.7 µM and a GI50 [20] of 20.3 µM. For the same compound, the TGI [20] was > 100 µM, the GI50 [21] was 8.5 µM and the TGI [21] was 37.5 µM. The GI50 [22] was 26.9 µM, the TGI [22] was > 100 µM and the GI50 [23] was 30.2 µM. The TGI [23] was > 100 µM, the GI50 [24] was 22.7 µM and the TGI [24] was 64.7 µM. For the same compound, the GI50 [25] was 7.97 µM, the TGI [25] was > 100 µM and the GI50 [26] was 18 µM. The TGI [26] was 41.8 µM, the GI50 [27] was 4 µM and the TGI [27] was 27.2 µM. For the same compound, the GI50 [28] was 21.4 µM, the TGI [28] was 82 µM and the GI50 [29] was 38.7 µM. The TGI [29] was > 100 µM, the GI50 [30] was 19.7 µM and the TGI [30] was 60.5 µM. The GI50 [31] was 17.1 µM, the TGI [31] was 42.4 µM and the GI50 [32] was 13.8 µM. The TGI [32] was 39.9 µM, the GI50 [33] was 16.6 µM and the TGI [33] was 58.9 µM. It also gave a GI50 [34] of 20.2 µM, a TGI [34] of 53.6 µM and a GI50 [35] of 27.5 µM. The TGI [35] was > 100 µM, the GI50 [36] was 34.8 µM and the TGI [36] was > 100 µM. For the same compound, the GI50 [37] was 25.1 µM, the TGI [37] was 84.8 µM and the GI50 [38] was 24.6 µM. For the same compound, the TGI [38] was 94.8 µM, the GI50 [39] was 26 µM and the TGI [39] was 79.3 µM. The GI50 [40] was 22.6 µM, the TGI [40] was 49.4 µM and the GI50 [41] was 30 µM. For the same compound, the TGI [41] was > 100 µM, the GI50 [42] was 15.8 µM and the TGI [42] was 39.5 µM. It also gave a GI50 [43] of 20.6 µM, a TGI [43] of 61.6 µM and a GI50 [44] of 24.3 µM. For the same compound, the TGI [44] was 52.1 µM, the GI50 [45] was 31.8 µM and the TGI [45] was > 100 µM. It also gave a GI50 [46] of 15.2 µM, a TGI [46] of 30.6 µM and a GI50 [47] of 20.8 µM. For the same compound, the TGI [47] was 63.9 µM, the GI50 [48] was 37.1 µM and the TGI [48] was > 100 µM. The GI50 [49] was 36.6 µM, the TGI [49] was > 100 µM and the GI50 [50] was 20 µM. The TGI [50] was 56.1 µM, the GI50 [51] was 13.6 µM and the TGI [51] was 46.7 µM. The GI50 [52] was 26.6 µM, the TGI [52] was > 100 µM and the GI50 [53] was 12.7 µM. It also gave a TGI [53] of 78 µM, a GI50 [54] of 25.8 µM and a TGI [54] of 60 µM. It also gave a GI50 [55] of 18.2 µM, a TGI [55] of 50.7 µM and a GI50 [56] of 22.4 µM. The TGI [56] was 61.8 µM, the GI50 [57] was 20.4 µM and the TGI [57] was 57.4 µM. The GI50 [58] was 17.7 µM and the TGI [58] was 53.6 µM.
